Key:
Test in all cases: relative viability (nuclei count vs DMSO), 5 days (fraction); higher = more cells survive
4EGI-1 + Decitabine = compound: O=C(O)C(Cc1ccccc1[N+](=O)[O-])=NNc1nc(-c2ccc(Cl)c(Cl)c2)cs1 (mixture of isomers) [4EGI-1] + Nc1ncn([C@H]2C[C@H](O)[C@@H](CO)O2)c(=O)n1 [Decitabine] (partner 2 µM)
In short: (§1)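 Relative viability equals treated-well nuclei counts divided by vehicle-well nuclei counts. Counts came from 4× images of lung cancer cell lines grown in 1536-well plates for 5 days after pin-tool dosing on the day after seeding. Dosing used one drug alone or a fixed anchor-drug dose plus five library-drug doses (not always all listed) in √10 steps, and values are medians of duplicate plates.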

XMD8-85 + Olaparib = compound: CN1CCN(CC1)C2=CC(=C(C=C2)NC3=NC=C4C(=N3)N(C5=CC=CC=C5C(=O)N4C)C)OC [XMD8-85] + O=C(c1cc(Cc2n[nH]c(=O)c3ccccc23)ccc1F)N1CCN(C(=O)C2CC2)CC1 [Olaparib] (partner 8 µM)
In short: as §1

4EGI-1 + Tozasertib = compound: O=C(O)C(Cc1ccccc1[N+](=O)[O-])=NNc1nc(-c2ccc(Cl)c(Cl)c2)cs1 (mixture of isomers) [4EGI-1] + Cc1cc(Nc2cc(N3CCN(C)CC3)nc(Sc3ccc(NC(=O)C4CC4)cc3)n2)n[nH]1 [Tozasertib] (partner 0.1 µM)
In short: as §1

XMD8-85 + Lapatinib = compound: CN1CCN(CC1)C2=CC(=C(C=C2)NC3=NC=C4C(=N3)N(C5=CC=CC=C5C(=O)N4C)C)OC [XMD8-85] + CS(=O)(=O)CCNCc1ccc(-c2ccc3ncnc(Nc4ccc(OCc5cccc(F)c5)c(Cl)c4)c3c2)o1 [Lapatinib] (partner 2 µM)
In short: as §1

| Cell Line | relative viability (4EGI-1 + Decitabine; first compound 0.5 µM) | relative viability (4EGI-1 + Decitabine; first compound 1.581 µM) | relative viability (4EGI-1 + Decitabine; first compound 5 µM) | relative viability (4EGI-1 + Decitabine; first compound 15.81 µM) | relative viability (4EGI-1 + Decitabine; first compound 50 µM) | relative viability (XMD8-85 + Olaparib; first compound 0.08 µM) | relative viability (XMD8-85 + Olaparib; first compound 0.253 µM) | relative viability (XMD8-85 + Olaparib; first compound 0.8 µM) | relative viability (XMD8-85 + Olaparib; first compound 2.53 µM) | relative viability (XMD8-85 + Olaparib; first compound 8 µM) | relative viability (4EGI-1 + Tozasertib; first compound 0.5 µM) | relative viability (4EGI-1 + Tozasertib; first compound 1.581 µM) | relative viability (4EGI-1 + Tozasertib; first compound 5 µM) | relative viability (4EGI-1 + Tozasertib; first compound 15.81 µM) | relative viability (4EGI-1 + Tozasertib; first compound 50 µM) | relative viability (XMD8-85 + Lapatinib; first compound 0.08 µM) | relative viability (XMD8-85 + Lapatinib; first compound 0.253 µM) | relative viability (XMD8-85 + Lapatinib; first compound 0.8 µM) | relative viability (XMD8-85 + Lapatinib; first compound 8 µM) | relative viability (XMD8-85 + Lapatinib; first compound 2.53 µM) |
| --- | --- | --- | --- | --- | --- | --- | --- | --- | --- | --- | --- | --- | --- | --- | --- | --- | --- | --- | --- | --- |
| NCI-H661 | 0.582 | 0.568 | 0.519 | 0.385 | 0.341 | 0.798 | 0.795 | 0.768 | 0.854 | 0.525 | 0.336 | 0.34 | 0.34 | 0.355 | 0.283 | 0.486 | 0.485 | 0.404 | 0.473 | – |
| NCI-H2087 | 0.376 | 0.338 | 0.258 | 0.218 | 0.158 | 0.527 | 0.688 | 0.7 | – | 0.533 | 0.272 | 0.261 | 0.227 | 0.164 | 0.167 | 1.01 | 1.08 | 1.05 | 0.974 | 1.12 |
| EKVX | 0.386 | – | 0.371 | 0.276 | 0.319 | 0.756 | 0.83 | 0.998 | 0.898 | 0.901 | 0.434 | 0.359 | 0.433 | 0.368 | 0.371 | 0.198 | 0.217 | 0.203 | 0.208 | 0.209 |
| NCI-H650 | 0.352 | – | 0.34 | 0.332 | 0.322 | 0.403 | 0.395 | 0.375 | 0.387 | 0.279 | 0.858 | – | 0.777 | 0.644 | 0.626 | 0.867 | 0.858 | 1.04 | – | 0.876 |
| NCI-H1355 | 0.364 | 0.36 | 0.358 | 0.328 | 0.336 | 0.744 | 0.79 | 0.714 | 0.657 | 0.589 | 0.551 | 0.551 | 0.559 | 0.429 | 0.291 | 0.956 | 1.03 | 1.01 | 0.875 | 1.08 |
| HOP-62 | 0.272 | 0.199 | 0.215 | 0.202 | 0.183 | 0.136 | 0.55 | 0.384 | 0.287 | 0.231 | 0.385 | 0.257 | 0.403 | 0.34 | 0.211 | 1.11 | 0.904 | 0.978 | 0.797 | 1.13 |
| BEN | 0.758 | 0.635 | 0.78 | 0.578 | 0.522 | 0.952 | 1.05 | 0.947 | 0.887 | 0.613 | 0.631 | 0.626 | 0.53 | 0.475 | 0.461 | 0.86 | – | 0.571 | 0.334 | 0.487 |
| NCI-H2023 | 0.242 | 0.173 | 0.221 | 0.128 | 0.0871 | 0.42 | 0.452 | 0.508 | 0.487 | 0.285 | 0.377 | – | 0.38 | 0.259 | 0.142 | 0.649 | 0.755 | 0.957 | 0.516 | 1.02 |
| NCI-H1651 | 0.626 | 0.553 | 0.734 | 0.576 | 0.286 | 0.166 | 0.19 | 0.181 | 0.172 | 0.16 | 0.704 | 0.518 | 0.678 | 0.383 | 0.372 | 0.764 | 0.842 | 0.96 | 0.555 | 0.977 |
| ABC-1 | 1.28 | – | 1.12 | 1.23 | 0.482 | 0.919 | 0.864 | 0.781 | 0.764 | 0.795 | 0.201 | 0.15 | 0.21 | 0.206 | 0.172 | 1.32 | 1.18 | 0.942 | 1.11 | 1.21 |
| NCI-H1666 | 0.749 | 0.609 | 0.758 | 0.564 | 0.495 | 0.697 | 0.716 | 0.742 | 0.773 | – | 0.61 | 0.535 | 0.647 | 0.448 | 0.328 | 0.58 | 0.709 | 0.92 | 0.499 | 0.816 |
| LU99A | 0.879 | 0.699 | 0.83 | 0.851 | 0.508 | 0.247 | 0.154 | 0.238 | 0.242 | 0.218 | 0.258 | 0.227 | 0.298 | 0.28 | 0.208 | 1.11 | 0.96 | 1.05 | 0.882 | 1.06 |
| NCI-H322M | 0.692 | – | 0.764 | 0.636 | 0.727 | 0.912 | 0.795 | 0.899 | 0.71 | 0.647 | 0.457 | – | 0.509 | 0.469 | 0.29 | 0.507 | 0.569 | 0.593 | 0.522 | 0.585 |

Reference: the supplement of paper PMC10307832
